Several values for one entry are separate records, joined by “and”; a condition that tells them apart may be missing. Equal values may be shown once. Inconclusive results and toxic doses are left out. Rule as the data show it: active = T/C of 150% or more; inactive = T/C below 125%.
System: L1210 leukemia ip in BDF1 mice, survival T/C
Assay: NCI In Vivo Anticancer Drug Screen. Data for tumor model L1210 Leukemia (intraperitoneal) in B6D2F1 (BDF1) mice
Settings: endpoint: mean survival time, higher = longer survival
How it was run: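 Antitumor effect is assessed in tumor-bearing animals. Survival in the compound arm is compared with a vehicle-dosed control arm and expressed as their quotient.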

[1] = dose: 100.0 mg/kg/injection, schedule: Q04DX003 (ip), vehicle: Klucel (hydroxypropylcellulose) (HPC)
[2] = dose: 200.0 mg/kg/injection, schedule: Q04DX003 (ip), vehicle: Klucel (hydroxypropylcellulose) (HPC)
[3] = dose: 400.0 mg/kg/injection, schedule: Q04DX003 (ip), vehicle: Klucel (hydroxypropylcellulose) (HPC)
[4] = dose: 100.0 mg/kg/injection, schedule: Q04DX003 (ip), vehicle: saline with Tween-80
[5] = dose: 200.0 mg/kg/injection, schedule: Q04DX003 (ip), vehicle: saline with Tween-80
[6] = dose: 400.0 mg/kg/injection, schedule: Q04DX003 (ip), vehicle: saline with Tween-80
[7] = dose: 100.0 mg/kg/injection, schedule: Q01DX009 (ip), vehicle: saline with Tween-80
[8] = dose: 200.0 mg/kg/injection, schedule: Q01DX009 (ip), vehicle: saline with Tween-80
[9] = dose: 400.0 mg/kg/injection, schedule: Q01DX009 (ip), vehicle: saline with Tween-80
[10] = dose: 50.0 mg/kg/injection, schedule: Q01DX009 (ip), vehicle: Klucel (hydroxypropylcellulose) (HPC)
[11] = dose: 100.0 mg/kg/injection, schedule: Q01DX009 (ip), vehicle: Klucel (hydroxypropylcellulose) (HPC)
[12] = dose: 200.0 mg/kg/injection, schedule: Q01DX009 (ip), vehicle: Klucel (hydroxypropylcellulose) (HPC)
[13] = dose: 400.0 mg/kg/injection, schedule: Q01DX009 (ip), vehicle: Klucel (hydroxypropylcellulose) (HPC)

Measured: T/C

O=C(CCCCCCCCC(=O)Nc1cccc(C2=NCCN2)c1)Nc1cccc(C2=NCCN2)c1
inactive: dose: 2.5 mg/kg/injection, schedule: Q01DX Z (ip), vehicle: saline 95 % of control | dose: 5.0 mg/kg/injection, schedule: Q01DX Z (ip), vehicle: saline 91 % of control | dose: 10.0 mg/kg/injection, schedule: Q01DX Z (ip), vehicle: saline 91 % of control

CCOC(=O)c1[nH]c(C)c(C(=O)OC(C)(C)C)c1C
inactive: dose: 100.0 mg/kg/injection, schedule: Q01DX001 (ip), vehicle: Klucel (hydroxypropylcellulose) (HPC) 95 % of control | [1] 95 % of control | dose: 200.0 mg/kg/injection, schedule: Q01DX001 (ip), vehicle: Klucel (hydroxypropylcellulose) (HPC) 93 % of control | [2] 106 % of control | dose: 400.0 mg/kg/injection, schedule: Q01DX001 (ip), vehicle: Klucel (hydroxypropylcellulose) (HPC) 92 % of control | [3] 103 % of control

CCCCCCCCCC1=NN(C2=NCCCC2)C(=O)C1
inactive: [1] 100 % of control | [2] 101 % of control | [3] 95 % of control

CCOc1ccccc1N1C(=O)C=CC1=O
inactive: dose: 12.5 mg/kg/injection, schedule: Q04DX002 (ip), vehicle: saline with Tween-80 96 % of control | dose: 25.0 mg/kg/injection, schedule: Q04DX002 (ip), vehicle: saline with Tween-80 109 % of control

CCCCNC(=O)C1C2C=CC(C2)C1C(=O)NCCCC (configuration not stated)
inactive: [4] 96 % of control | [5] 96 % of control | [6] 91 % of control

O=c1[nH]c(=O)c2n[nH]c(C3OCC(O)C3O)c2[nH]1 (configuration not stated)
inactive: dose: 100.0 mg/kg/injection, schedule: Q01DX005 (ip), vehicle: saline 94 % of control | dose: 200.0 mg/kg/injection, schedule: Q01DX005 (ip), vehicle: saline 97 % of control

Cc1nc2ccc(Cl)cc2c(=O)[nH]1
inactive: dose: 100.0 mg/kg/injection, schedule: Q01DX001 (ip), vehicle: other 102 % of control | dose: 100.0 mg/kg/injection, schedule: Q04DX003 (ip), vehicle: other 96 % of control | dose: 200.0 mg/kg/injection, schedule: Q01DX001 (ip), vehicle: other 96 % of control | dose: 200.0 mg/kg/injection, schedule: Q04DX003 (ip), vehicle: other 96 % of control | dose: 400.0 mg/kg/injection, schedule: Q01DX001 (ip), vehicle: other 104 % of control | dose: 400.0 mg/kg/injection, schedule: Q04DX003 (ip), vehicle: other 96 % of control

O=C(Nc1ccccc1)c1ccccc1C(O)(c1ccccc1)c1ccccn1 (configuration not stated)
inactive: [7] 95 % of control | [8] 97 % of control | [9] 92 % of control

COc1ccc(NC(=O)Oc2ccccc2C(N)=O)c(OC)c1
inactive: dose: 25.0 mg/kg/injection, schedule: Q01DX009 (ip), vehicle: Klucel (hydroxypropylcellulose) (HPC) 109 % of control | [10] 102 % of control | [11] 103 % of control and 112 % of control

O=C1CCC2CC1CCC2=O
inactive: dose: 18.75 mg/kg/injection, schedule: Q01DX009 (ip), vehicle: Klucel (hydroxypropylcellulose) (HPC) 101 % of control | dose: 18.75 mg/kg/injection, schedule: Q04DX003 (ip), vehicle: Klucel (hydroxypropylcellulose) (HPC) 101 % of control | dose: 37.5 mg/kg/injection, schedule: Q01DX009 (ip), vehicle: Klucel (hydroxypropylcellulose) (HPC) 101 % of control | dose: 37.5 mg/kg/injection, schedule: Q04DX003 (ip), vehicle: Klucel (hydroxypropylcellulose) (HPC) 97 % of control | dose: 75.0 mg/kg/injection, schedule: Q01DX009 (ip), vehicle: Klucel (hydroxypropylcellulose) (HPC) 98 % of control | dose: 75.0 mg/kg/injection, schedule: Q04DX003 (ip), vehicle: Klucel (hydroxypropylcellulose) (HPC) 97 % of control

COc1ccc(C(c2ccccc2)N(N=O)C(=O)c2ccccc2)cc1 (configuration not stated)
inactive: dose: 38.0 mg/kg/injection, schedule: Q04DX002 (ip), vehicle: Klucel (hydroxypropylcellulose) (HPC) 94 % of control | dose: 75.0 mg/kg/injection, schedule: Q04DX002 (ip), vehicle: Klucel (hydroxypropylcellulose) (HPC) 94 % of control | dose: 150.0 mg/kg/injection, schedule: Q04DX002 (ip), vehicle: Klucel (hydroxypropylcellulose) (HPC) 94 % of control

CC(=O)OC1CCCCCCCCC1OC(C)=O (configuration not stated)
inactive: dose: 100.0 mg/kg/injection, schedule: Q01DX001 (ip), vehicle: carboxymethylcellulose (CMC) 103 % of control | dose: 200.0 mg/kg/injection, schedule: Q01DX001 (ip), vehicle: carboxymethylcellulose (CMC) 98 % of control | dose: 400.0 mg/kg/injection, schedule: Q01DX001 (ip), vehicle: carboxymethylcellulose (CMC) 95 % of control

C[n+]1ccc(C=O)cc1
inactive: dose: 50.0 mg/kg/injection, schedule: Q01DX001 (ip), vehicle: saline 102 % of control | dose: 50.0 mg/kg/injection, schedule: Q01DX009 (ip), vehicle: saline 104 % of control and 109 % of control | dose: 50.0 mg/kg/injection, schedule: Q04DX003 (ip), vehicle: saline 103 % of control | dose: 100.0 mg/kg/injection, schedule: Q01DX001 (ip), vehicle: saline 105 % of control | dose: 100.0 mg/kg/injection, schedule: Q01DX009 (ip), vehicle: saline 102 % of control and 117 % of control | dose: 100.0 mg/kg/injection, schedule: Q04DX002 (ip), vehicle: saline 94 % of control and 107 % of control | dose: 100.0 mg/kg/injection, schedule: Q04DX003 (ip), vehicle: saline 101 % of control | dose: 200.0 mg/kg/injection, schedule: Q01DX001 (ip), vehicle: saline 105 % of control | dose: 200.0 mg/kg/injection, schedule: Q01DX009 (ip), vehicle: saline 106 % of control and 120 % of control | dose: 200.0 mg/kg/injection, schedule: Q04DX002 (ip), vehicle: saline 102 % of control and 104 % of control | dose: 200.0 mg/kg/injection, schedule: Q04DX003 (ip), vehicle: saline 94 % of control | dose: 400.0 mg/kg/injection, schedule: Q04DX002 (ip), vehicle: saline 98 % of control and 100 % of control

N#CC1=C(N)CCC(C#N)(c2ccccc2)C1 (configuration not stated)
inactive: [7] 98 % of control | [8] 91 % of control

CCCNC(=O)Nc1cccc(C(F)(F)F)c1
inactive: [7] 100 % of control | [4] 100 % of control | [8] 97 % of control | [5] 97 % of control | [9] 88 % of control | [6] 106 % of control

CN1C(=O)CCN(CCN2CCC(=O)N(C)C2=S)C1=S
inactive: dose: 100.0 mg/kg/injection, schedule: Q04DX002 (ip), vehicle: Klucel (hydroxypropylcellulose) (HPC) 114 % of control | dose: 200.0 mg/kg/injection, schedule: Q04DX002 (ip), vehicle: Klucel (hydroxypropylcellulose) (HPC) 103 % of control | dose: 400.0 mg/kg/injection, schedule: Q04DX002 (ip), vehicle: Klucel (hydroxypropylcellulose) (HPC) 96 % of control

O=C(NN(c1ccccc1)c1cccc2ccccc12)c1ccccc1
inactive: [10] 103 % of control | [11] 103 % of control | [1] 89 % of control | [12] 97 % of control | [2] 93 % of control | [13] 100 % of control | [3] 94 % of control

CCOc1ccc(-n2cnc3c(=O)[nH]c(N)nc32)cc1
inactive: [11] 93 % of control | [12] 91 % of control | [13] 91 % of control

COc1ccc(C=C2c3ccccc3-c3ccccc32)cc1
inactive: dose: 100.0 mg/kg/injection, schedule: Q04DX003 (ip), vehicle: saline sonified 95 % of control | dose: 200.0 mg/kg/injection, schedule: Q04DX003 (ip), vehicle: saline sonified 100 % of control | dose: 400.0 mg/kg/injection, schedule: Q04DX003 (ip), vehicle: saline sonified 94 % of control

CN(C)S(=O)(=O)c1ccc(NC(=O)CI)cc1
inactive: dose: 12.0 mg/kg/injection, schedule: Q01DX001 (ip), vehicle: other 95 % of control | dose: 12.5 mg/kg/injection, schedule: Q01DX009 (ip), vehicle: saline with Tween-80 95 % of control | dose: 12.5 mg/kg/injection, schedule: Q04DX003 (ip), vehicle: other 95 % of control | dose: 25.0 mg/kg/injection, schedule: Q01DX001 (ip), vehicle: other 105 % of control | dose: 25.0 mg/kg/injection, schedule: Q01DX009 (ip), vehicle: saline with Tween-80 106 % of control | dose: 25.0 mg/kg/injection, schedule: Q04DX003 (ip), vehicle: other 101 % of control | dose: 50.0 mg/kg/injection, schedule: Q01DX001 (ip), vehicle: other 100 % of control | dose: 50.0 mg/kg/injection, schedule: Q04DX003 (ip), vehicle: other 96 % of control

Source: PubChem BioAssay AID248 (DTP/NCI, 2004)
